For this assay, the target named is T1, recombinant full-length USP7 (Homo sapiens, UniProt Q93009).
T1 construct: A 25 μl reaction volume containing recombinant full-length USP7 (62 pM)
Kind of assay: USP7-mediated ubiquitin-rhodamine cleavage assay. The assay is classed as biochemical. The following applies: recombinant full-length USP7 62 pM, ubiquitin-rhodamine 100 nM, 1 hour reaction at room temperature. Here is the method: In the case of the USP7 deubiquitylating enzyme, the IC50 of an USP7 inhibiting compound is the concentration of the compound that inhibits 50% of the activity observed in a USP7-mediated ubiquitin-rhodamine cleavage assay.
For the USP7 inhibitors disclosed herein, their potency was measured using the following test method.
A 25 μl reaction volume containing recombinant full-length USP7 (62 pM) in 20 mM HEPES pH 7.3, 150 mM NaCl, 1 mM TCEP, and 125 μg/ml BSA was assembled in wells of 384 well plates. Test compounds were dispensed with a Hewlett Packard D300 digital dispenser (1% final DMSO). Following a 30-minute incubation at room temperature, ubiquitin-rhodamine was added with the D300 to a final concentration of 100 nM and the reaction was allowed to proceed for 1 hour at room temperature protected from light. The reaction was stopped by the addition of 5 μl 1M acetic acid. Rhodamine fluorescence was measured using an Envision plate reader (Perkin Elmer) and IC50 values were determined by non-linear regression using a 4-parameter fit in a Dotmatics (Bishops Stortford, Hertfordshire, England) software package.

Where [1] appears, read: 30-minute incubation with compound, read-out: Potency: USP7 IC50.
The mark [2] stands for this setting: 30-minute pre-incubation, read-out: Potency (USP7 IC50).

pIC50: −log10 of the molar value. Where a name gives a salt, the structure may show the parent alone. Read-outs that look alike come from different tables or passages of the source.

T1 sequence (Q93009 whole entry): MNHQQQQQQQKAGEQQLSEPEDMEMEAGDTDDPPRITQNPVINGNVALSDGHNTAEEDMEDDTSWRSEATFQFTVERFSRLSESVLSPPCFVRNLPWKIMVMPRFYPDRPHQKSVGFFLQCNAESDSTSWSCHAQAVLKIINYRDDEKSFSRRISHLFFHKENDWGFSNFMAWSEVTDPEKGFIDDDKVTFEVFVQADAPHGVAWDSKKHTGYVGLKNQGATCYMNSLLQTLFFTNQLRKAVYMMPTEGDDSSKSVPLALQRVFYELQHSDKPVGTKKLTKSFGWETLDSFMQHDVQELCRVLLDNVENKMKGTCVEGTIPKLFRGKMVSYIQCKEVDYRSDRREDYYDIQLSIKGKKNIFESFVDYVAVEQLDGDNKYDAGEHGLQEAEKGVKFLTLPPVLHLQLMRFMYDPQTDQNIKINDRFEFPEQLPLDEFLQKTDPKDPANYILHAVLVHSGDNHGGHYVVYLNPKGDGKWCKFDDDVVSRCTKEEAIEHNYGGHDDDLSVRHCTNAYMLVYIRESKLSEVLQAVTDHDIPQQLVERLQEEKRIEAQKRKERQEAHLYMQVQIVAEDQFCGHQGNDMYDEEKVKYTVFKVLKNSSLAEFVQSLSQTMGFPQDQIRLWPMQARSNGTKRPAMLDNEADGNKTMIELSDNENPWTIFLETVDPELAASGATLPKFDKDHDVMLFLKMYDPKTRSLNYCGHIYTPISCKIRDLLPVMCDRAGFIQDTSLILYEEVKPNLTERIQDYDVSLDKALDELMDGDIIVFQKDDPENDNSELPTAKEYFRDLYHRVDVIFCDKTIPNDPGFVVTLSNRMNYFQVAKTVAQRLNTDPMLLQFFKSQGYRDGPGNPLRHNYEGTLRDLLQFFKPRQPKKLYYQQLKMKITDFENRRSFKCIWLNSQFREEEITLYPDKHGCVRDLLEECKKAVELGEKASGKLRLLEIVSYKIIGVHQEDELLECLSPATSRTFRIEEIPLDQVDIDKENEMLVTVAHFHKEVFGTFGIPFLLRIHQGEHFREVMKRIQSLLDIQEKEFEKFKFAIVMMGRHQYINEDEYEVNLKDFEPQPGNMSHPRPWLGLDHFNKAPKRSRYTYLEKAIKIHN

The pIC50 is −log10 of the IC50, conventionally taken in molar units. As for `Cc1cc(Cl)cc(-c2ccnc3cc(CN4C(=O)C5CCCN5C4=O)sc23)c1O[C@@H]1CNC[C@@H]1F` (stereo partly drawn) [Example 143, 2-((7-(5-Chloro-2-(((3R,4S)-4-fluoropyrrolidin-3-yl)oxy)-3-methylphenyl)thieno[3,2-b]pyridin-2-yl)methyl)tetrahydro-1H-pyrrolo[1,2-c] imidazole-1,3(2H)-dione], the pIC50 under setting [1] was more than 6.00.

As to `Cc1cc(Cl)cc(-c2ccnc3cc(CO)sc23)c1OC[C@@H]1CCN1` [Example 18, (S)-(7-(2-(Azetidin-2-ylmethoxy)-5-chloro-3-methylphenyl)thieno[3,2-b]pyridin-2-yl)methanol], the pIC50 under setting [1] was 4.52 to 5.00.

As to `Cc1cc(Cl)cc(-c2ccnc3cc(CN4C(=O)C5CCCCC5C4=O)sc23)c1OC1CCNCC1` (centres unmarked) [Example 217], the pIC50 under setting [1] was 5.00 to 6.00.

As for `Cc1cc(Cl)cc(-c2ccnc3cc(CN4C(=O)C5CC5C4=O)sc23)c1O[C@@H]1CN(C)C[C@@H]1F` (stereo partly drawn) [Example 314, 3-[[7-[5-chloro-2-[(3R,4S)-4-fluoro-1-methyl-pyrrolidin-3-yl]oxy-3-methyl-phenyl]thieno[3,2-b]pyridin-2-yl]methyl]-3-azabicyclo[3.1.0]hexane-2,4-dione], the negative-log IC50 (pIC50) under setting [1] was more than 6.00.

Take `Cc1cc(Cl)cc(-c2ncnc3cc(CN4C(=O)CSC4=O)sc23)c1OC1CCNCC1` [Example 226, 3-((4-(5-Chloro-3-methyl-2-(piperidin-4-yloxy)phenyl)thieno[3,2-d]pyrimidin-6-yl)methyl)thiazolidine-2,4-dione]: the negative-log IC50 (pIC50) under setting [1] is 5.00 to 6.00.

On to `Cc1cc(Cl)cc(-c2ccnc3cc(Cn4c(=O)ccn(CC(F)(F)F)c4=O)sc23)c1O[C@@H]1CN(C2COC2)C[C@@H]1C` [Example 606, 3-[[7-[5-chloro-3-methyl-2-[(3S,4S)-4-methyl-1-(oxetan-3-yl)pyrrolidin-3-yl]oxy-phenyl]thieno[3,2-b]pyridin-2-yl]methyl]-1-(2,2,2-trifluoroethyl)pyrimidine-2,4-dione], for which the negative-log IC50 (pIC50) under setting [2] was more than 6.00.

Take `Cc1cc(Cl)cc(-c2ccnc3cc(CN4C(=O)CCC4=O)sc23)c1O[C@H]1C[C@@H]2CN[C@H]1C2` [Example 221, 1-((7-(2-(((1S,4R,6S)-2-azabicyclo[2.2.1]heptan-6-yl)oxy)-5-chloro-3-methylphenyl)thieno[3,2-b]pyridin-2-yl)methyl)pyrrolidine-2,5-dione]: the negative logarithm of the IC50 (pIC50) under setting [1] is more than 6.00.

As to `OCc1cc2nccc(-c3cc(F)cc(Br)c3O[C@H]3CCCNC3)c2s1` [Example 169, (S)-(7-(3-Bromo-5-fluoro-2-(piperidin-3-yloxy)phenyl)thieno[3,2-b]pyridin-2-yl)methanol], the pIC50 under setting [1] was 4.52 to 5.00.

As to `Cc1cc(Cl)cc(-c2ccnc3cc(Cn4c(=O)ccn(C)c4=O)sc23)c1O[C@H]1CN[C@@H](C(=O)O)C1` [Example 601, (2R,4R)-4-[4-chloro-2-methyl-6-[2-[(3-methyl-2,6-dioxo-pyrimidin-1-yl)methyl]thieno[3,2-b]pyridin-7-yl]phenoxy]pyrrolidine-2-carboxylic acid], under setting [2], the pIC50 was 5.00 to 6.00.

Turning to `Cc1cc(Cl)cc(-c2ccnc3cc(CN4C(=O)CCC4=O)sc23)c1O[C@H]1CCNC[C@@H]1C` [Example 223, 1-((7-(5-Chloro-3-methyl-2-(((3S,4S)-3-methylpiperidin-4-yl)oxy)phenyl)thieno[3,2-b]pyridin-2-yl)methyl)pyrrolidine-2,5-dione], the pIC50 under setting [1] is more than 6.00.

As to `Cc1cc(Cl)cc(-c2ccnc3cc(CN4C(=O)CCC4=O)sc23)c1O[C@@H]1CNC[C@@H]1CO` [Example 98, 1-((7-(5-Chloro-2-(((3S,4R)-4-(hydroxymethyl)pyrrolidin-3-yl)oxy)-3-methylphenyl)thieno[3,2-b]pyridin-2-yl)methyl)pyrrolidine-2,5-dione], under setting [1], the negative logarithm of the IC50 (pIC50) is more than 6.00.

For `Cc1cc(Cl)cc(-c2ccnc3cc(CN4C(=O)CCC4=O)sc23)c1OC1CC2(CCN2)C1` (centres unmarked) [Example 464, 1-[[7-[2-(1-azaspiro[3.3]heptan-6-yloxy)-5-chloro-3-methyl-phenyl]thieno[3,2-b]pyridin-2-yl]methyl]pyrrolidine-2,5-dione; 2,2,2-trifluoroacetic acid], under setting [2], the pIC50 is more than 6.00.

In the case of `Cc1cc(Cl)cc(-c2ccnc3cc(Cn4c(=O)ccn(C)c4=O)sc23)c1O[C@H]1CCCN(CCO)CC1` [Example 494, 3-[[7-[5-chloro-2-[(4S)-1-(2-hydroxyethyl)azepan-4-yl]oxy-3-methyl-phenyl]thieno[3,2-b]pyridin-2-yl]methyl]-1-methyl-pyrimidine-2,4-dione], under setting [2], the negative logarithm of the IC50 (pIC50) is more than 6.00.

As for `Cc1cc(Cl)cc(-c2ccnc3cc(Cn4c(=O)ccn(C)c4=O)sc23)c1OC1CCN(C2COC2)CC1` [Example 255, 3-((7-(5-Chloro-3-methyl-2-((1-(oxetan-3-yl)piperidin-4-yl)oxy)phenyl)thieno[3,2-b]pyridin-2-yl)methyl)-1-methylpyrimidine-2,4(1H,3H)-dione], the negative-log IC50 (pIC50) under setting [1] was more than 6.00.

For the molecule `O=C1CCC(=O)N1Cc1cc2nccc(-c3cc(Cl)cc(C(F)F)c3OC3CCNCC3)c2s1` [Example 431, 1-[[7-[5-chloro-3-(difluoromethyl)-2-(4-piperidyloxy)phenyl]thieno[3,2-b]pyridin-2-yl]methyl]pyrrolidine-2,5-dione dihydrochloride], the pIC50 under setting [2] was more than 6.00.

For the molecule `Cc1cc(Cl)cc(-c2ccnc3cc(CN4C(=O)CCN(C)C4=O)sc23)c1O[C@@H]1CNC[C@@H]1F` [Example 150, 3-((7-(5-Chloro-2-(((3R,4S)-4-fluoropyrrolidin-3-yl)oxy)-3-methylphenyl)thieno[3,2-b]pyridin-2-yl)methyl)-1-methyldihydropyrimidine-2,4(1H,3H)-dione], the negative logarithm of the IC50 (pIC50) under setting [1] is more than 6.00.

For the molecule `Cc1cc(Cl)cc(-c2ccnc3cc(CO)sc23)c1O[C@@H]1CNC[C@H]1C` [Example 55, (7-(5-Chloro-3-methyl-2-(((3S,4R)-4-methylpyrrolidin-3-yl)oxy)phenyl)thieno[3,2-b]pyridin-2-yl)methanol], the negative-log IC50 (pIC50) under setting [1] is 4.52 to 5.00.

With `Cc1cc(Cl)cc(-c2ccnc3cc(CN4C(=O)CCC4=O)sc23)c1O[C@@H]1CCNC[C@@H]1C` [Example 303, 1-[[7-[5-chloro-3-methyl-2-[[(3S,4R)-3-methyl-4-piperidyl]oxy]phenyl]thieno[3,2-b]pyridin-2-yl]methyl]pyrrolidine-2,5-dione], under setting [1], the negative logarithm of the IC50 (pIC50) was more than 6.00.

`Cc1cc(Cl)cc(-c2ccnc3cc(Cn4c(=O)ccn(CC(F)(F)F)c4=O)sc23)c1OCC1(F)CNC1` [Example 641, 3-[[7-[5-chloro-2-[(3-fluoroazetidin-3-yl)methoxy]-3-methyl-phenyl]thieno[3,2-b]pyridin-2-yl]methyl]-1-(2,2,2-trifluoroethyl)pyrimidine-2,4-dione]: the negative logarithm of the IC50 (pIC50) under setting [2] was more than 6.00.

With `Cc1cc(Cl)cc(-c2ccnc3cc(Cn4c(=O)ccn(C)c4=O)sc23)c1OC1CCCN(CCC(F)(F)F)C1` (centres unmarked) [Example 507, 3-[[7-[5-chloro-3-methyl-2-[[1-(3,3,3-trifluoropropyl)-3-piperidyl]oxy]phenyl]thieno[3,2-b]pyridin-2-yl]methyl]-1-methyl-pyrimidine-2,4-dione], under setting [2], the negative logarithm of the IC50 (pIC50) is more than 6.00.

Consider `CCC(O)c1cc2ncnc(-c3cc(Cl)cc(C)c3O[C@H]3CCCNC3)c2s1` (stereo partly drawn) [Example 174, 1-(4-(5-Chloro-3-methyl-2-(((S)-piperidin-3-yl)oxy)phenyl)thieno[3,2-d]pyrimidin-6-yl)propan-1-ol], for which the negative logarithm of the IC50 (pIC50) under setting [1] is 5.00 to 6.00.

`O=C1CCC(=O)N1Cc1cc2nccc(-c3cc(Cl)cc(Cl)c3O[C@@H]3CNC[C@@H]3F)c2s1` [Example 123, 1-((7-(3,5-Dichloro-2-(((3R,4S)-4-fluoropyrrolidin-3-yl)oxy)phenyl)thieno[3,2-b]pyridin-2-yl)methyl)pyrrolidine-2,5-dione]: the negative-log IC50 (pIC50) under setting [1] was more than 6.00.

Turning to `CCC(O)c1cc2nccc(-c3cc(Cl)cc(C)c3OC3CC4CC3CN4)c2s1` (centres unmarked) [Example 197, 1-(7-(2-((2-Azabicyclo[2.2.1]heptan-5-yl)oxy)-5-chloro-3-methylphenyl)thieno[3,2-b]pyridin-2-yl)propan-1-ol], the pIC50 under setting [1] was 5.00 to 6.00.

With `CCC(O)c1cc2nccc(-c3cc(Cl)cc(C)c3O[C@H]3CCCNC3)c2s1` (stereo partly drawn) [Example 164, 1-(7-(5-Chloro-3-methyl-2-(((S)-piperidin-3-yl)oxy)phenyl)thieno[3,2-b]pyridin-2-yl)propan-1-ol], the negative-log IC50 (pIC50) under setting [1] was 5.00 to 6.00.

Regarding `CC[C@H]1C[C@@H](Oc2c(C)cc(Cl)cc2-c2ccnc3cc(Cn4c(=O)ccn(C)c4=O)sc23)CCN1` [Example 610, 3-[[7-[5-chloro-2-[[(2S,4S)-2-ethyl-4-piperidyl]oxy]-3-methyl-phenyl]thieno[3,2-b]pyridin-2-yl]methyl]-1-methylpyrimidine-2,4-dione], the negative logarithm of the IC50 (pIC50) under setting [2] was more than 6.00.

With `O=C1CCC(=O)N1Cc1cc2nccc(-c3cc(Cl)cc(C(F)F)c3O[C@H]3CCCNC3)c2s1` [Example 432, 1-[[7-[5-chloro-3-(difluoromethyl)-2-[[(3S)-3-piperidyl]oxy]phenyl]thieno[3,2-b]pyridin-2-yl]methyl]pyrrolidine-2,5-dione dihydrochloride], the negative logarithm of the IC50 (pIC50) under setting [2] was more than 6.00.

The record behind these values is patent US10722514B2 (FLX Bio, Inc., priority 2017, dated 2020).
